Results taken from patent US8637665B2, “Pyrrolo[2,L-C][L,4]benzodiazepine-benzothiazole or benzoxazole conjugates linked through piperazine moiety and process for the preparation thereof” (priority 2010, dated 2014).
Read-outs that look alike come from different tables or passages of the source.

Legend:
[1] = system: duplex-form calf thymus DNA (CT-DNA); conditions: comparative data, hybrids without piperazine, cited from earlier work
[2] = system: duplex-form calf thymus DNA (CT-DNA); assay: Thermal denaturation studies with calf thymus DNA (DNA binding affinity); conditions: [PBD]:[DNA] 1:5, CT-DNA 100 μM, ligand 20 μM, pH 7.00
Experimental: Compounds have been subjected to thermal denaturation studies with duplex-form calf thymus DNA (CT-DNA) using an modification of a reported procedure (Newman, M. S. Carcinog-compr. Surv. 1976,1, 203; (b) Hecht, S. S.; Loy, M.; Hoffman, Carcinog-compr. Surv. 1976, 1, 325). Working solutions in aqueous buffer (10 mM NaH2PO4/Na2HPO4, 1 mM Na2EDTA, pH 7.00+0.01) containing CT-DNA (100 μm in phosphate) and the PBD (20 μm) have been prepared by addition of concentrated PBD solutions in DMSO to obtain a fixed [PBD]/[DNA] molar ratio of 1:5. The DNA-PBD solutions have been incubated at 37° C. for 0 and 18 h prior to analysis. Samples have been monitored at 260 using a Beckman DU-800 spectrophotometer fitted with high performance temperature controller, and heated at 1° C. min^−1 in the 40-110° C. range. DNA helix→coil transition temperatures (Tm) have been obtained from the maxima in the d(A260)/dT derivative plots. Drug-induced alterations in DNA melting behavior are given by: ΔTm=Tm(DNA+PBD)−Tm(DNA alone), where the Tm value for the PBD-free CT-DNA is 69.1±0.01.
The DNA binding activity for these novel C8-linked benzothiazole, benzoxazole-PBD hybrids has been examined by thermal denaturation studies using calf thymus (CT) DNA. […] The data for the compounds 9a-n is included in Table 7 for comparison.

[3] = system: A 2780 (ovary cancer) cell line; assay: cells; type: cell-based; conditions: Homo sapiens; for GI50: mean of three determinations
Experimental: (§1) Anticancer activity: In vitro biological activity studies were carried out at the Advance Center for Treatment Research & Education in Cancer (ACTREC), Navi Mumbai.
(§2) The compounds were evaluated for in vitro anticancer activity against eight tumour cells lines derived from seven cancer types (non-small-cell lung, colon, oral, cervix, ovarian, prostate, and breast cancer) as shown in Table 2. For each compound, dose response curves for each cell line were measured at a minimum of five concentrations at 10 fold dilutions. A protocol of 48 h continuous drug exposure was used and a sulforhodamine B (SRB) protein assay was used to estimate cell viability or growth. The concentration causing 50% cell growth inhibition (GI50) and 50% cell death (LC50, −50% growth) compared with the control was calculated. Compounds 9a-9l have been evaluated for their in vitro cytotoxicity in eight cell lines from seven human cancer types of lung (Hop-62, A-549) colon (COLO-205) cervix (Si—Ha), ovary (A-2780), prostate (PC3) breast (MCF7), oral (KB). The results are expressed as percent of cell growth determined relative to that of untreated control cells (Table-8 and table-9).

[4] = system: A 549 (lung cancer) cell line; assay: cells; type: cell-based; conditions: Homo sapiens; for GI50: mean of three determinations
Experimental: as §1, §2

[5] = system: Colo 205 (colon cancer) cell line; assay: cells; type: cell-based; conditions: Homo sapiens; for GI50: mean of three determinations
Experimental: as §1, §2

[6] = system: HOP 62 (lung cancer) cell line; assay: cells; type: cell-based; conditions: Homo sapiens; for GI50: mean of three determinations
Experimental: as §1, §2

[7] = system: MCF 7 (breast cancer) cell line; assay: cells; type: cell-based; conditions: Homo sapiens; for GI50: read-out: GI50 MCF 7
Experimental: as §1, §2

[8] = system: PC 3 (prostate cancer) cell line; assay: cells; type: cell-based; conditions: Homo sapiens; for GI50: read-out: GI50 PC 3
Experimental: as §1, §2

[9] = system: SiHa (cervix cancer) cell line; assay: cells; type: cell-based; conditions: Homo sapiens, SiHa; for GI50: mean of three determinations
Experimental: as §1, §2

[10] = system: KB (oral cancer) cell line; assay: In vitro anticancer activity, SRB assay, KB; type: cell-based, human; conditions: Homo sapiens, 48 h; for GI50: mean of three determinations
Experimental: as §1, §2

COc1cc(-c2nc3ccccc3o2)ccc1OCCCCCOc1cc2c(cc1OC)C(=O)N1CCC[C@H]1C=N2 [Compound 30b]
ΔTm after incubation at 37° C. for 0 h (PBD hybrids with out piperizine) ([1]; 0 h): 4.2 °C
ΔTm after incubation at 37° C. for 18 h (PBD hybrids with out piperizine) ([1]; 18 h): 4.3 °C

COc1cc(-c2nc3ccccc3s2)ccc1OCCCCN1CCN(CCCCOc2cc3c(cc2OC)C(=O)N2CCC[C@H]2C=N3)CC1 [Compound 9m, 7-Methoxy-8-[4-(4-{4-[4(1,3-benzothiazol-2-yl)-2-methoxyphenoxy]butyl}piperazin-1-yl)butyl]oxy-(11aS)-1,2,3,11a-tetrahydro-5H-pyrrolo[2,1-c][1,4]benzodiazepin-5-one]
ΔTm after incubation at 37° C. for 0 h [2]: 12.1 °C
ΔTm after incubation at 37° C. for 18 h [2]: 12.5 °C

COc1cc2c(cc1OCCCCN1CCN(CCCCOc3cccc(-c4nc5ccccc5s4)c3)CC1)N=C[C@@H]1CCCN1C2=O [Compound 9h, 7-Methoxy-8-[4-(4-{4-[3(1,3-benzothiazol-2-yl)-phenoxy]butyl}piperazin-1-yl)butyl]oxy-(11aS)-1,2,3,11a-tetrahydro-5H-pyrrolo[2,1-c][1,4]benzodiazepin-5-one]
ΔTm after incubation at 37° C. for 0 h [2]: 11.9 °C
ΔTm after incubation at 37° C. for 18 h [2]: 12.3 °C
GI50 ([3]; A2780, 48 h, read-out: GI50 A 2780, 48 h drug exposure, SRB): 109 nM
CC50 ([3]; A2780, 48 h, read-out: LC50 A 2780, 50% cell death, 48 h drug exposure, SRB): 2300 nM
GI50 ([4]; A549, 48 h, read-out: GI50 A 549, 48 h drug exposure, SRB): 0.12 µM
CC50 ([4]; A549, 48 h, read-out: LC50 A 549, 50% cell death, 48 h drug exposure, SRB): > 100 µM
GI50 ([5]; COLO 205, 48 h, read-out: GI50 Colo 205, 48 h drug exposure, SRB): 0.16 µM
CC50 ([5]; COLO 205, 48 h, read-out: LC50 Colo 205): > 100 µM
GI50 ([6]; HOP-62, 48 h, read-out: GI50 HOP 62, 48 h drug exposure, SRB): 100 nM
LC50 ([6]; HOP-62, 48 h, read-out: LC50 HOP 62, 50% cell death, 48 h drug exposure, SRB): 27 µM
GI50 ([7]; MCF7, 48 h): 120 nM
LC50 (concentration causing 50% cell death) ([7]; MCF7, 48 h, read-out: LC50 MCF 7, 50% cell death, 48 h drug exposure, SRB): 2200 nM
GI50 ([8]; 48 h): 140 nM
CC50 ([8]; 48 h, read-out: LC50 Pc 3, 50% cell death, 48 h drug exposure, SRB): 2400 nM
GI50 ([9]; 48 h, read-out: GI50 SiHa, 48 h drug exposure, SRB): 130 nM
LC50 (concentration causing 50% cell death) ([9]; 48 h, read-out: LC50 SiHa, 50% cell death, 48 h drug exposure, SRB): 27 µM
GI50 ([10]; read-out: GI50 KB, 48 h drug exposure, SRB): 120 nM
CC50 ([10]; read-out: LC50 KB, 50% cell death, 48 h drug exposure, SRB): 200 nM

COc1cccc2c1C(=O)c1c(O)c3c(c(O)c1C2=O)C[C@@](O)(C(=O)CO)C[C@@H]3O[C@H]1C[C@H](N)[C@H](O)[C@H](C)O1 [ADR, adriamycin, reference compound]
GI50 ([3]; A2780, 48 h drug exposure, SRB, read-out: GI50 A 2780): 2 nM
GI50 ([4]; A549, 48 h drug exposure, SRB, read-out: GI50 A 549): 13 µM
GI50 ([5]; COLO 205, 48 h drug exposure, SRB, read-out: GI50 Colo 205): 14.7 µM
GI50 ([6]; HOP-62, 48 h drug exposure, SRB, read-out: GI50 HOP 62): < 10 nM
GI50 ([7]; MCF7, 48 h drug exposure, SRB, mean of three determinations): < 10 nM
GI50 ([8]; 48 h drug exposure, SRB, mean of three determinations): < 10 nM
GI50 ([9]; 48 h drug exposure, SRB, read-out: GI50 SiHa): 190 nM
GI50 ([10]; 48 h drug exposure, SRB, read-out: GI50 KB): 160 nM

COc1cc2c(cc1OCCCCN1CCN(CCCCOc3cccc(-c4nc5ccccc5s4)c3)CC1)N=C[C@@H]1CCCN1C2=O [Compound 9n, 7-Methoxy-8-[4-(4-{4-[3(1,3-benzothiazol-2-yl)-phenoxy]butyl}piperazin-1-yl)butyl]oxy-(11aS)-1,2,3,11a-tetrahydro-5H-pyrrolo[2,1-c][1,4]benzodiazepin-5-one]
ΔTm after incubation at 37° C. for 0 h [2]: 10.3 °C
ΔTm after incubation at 37° C. for 18 h [2]: 10.6 °C
